According to PMC12260939, “Radiosynthesis and Evaluation of ^11C‑Labeled Imidazolyl Pyrimidine Derivatives for Positron Emission Tomography Imaging of Glycogen Synthase Kinase‑3” (ACS Pharmacology & Translational Science, 2025):
≈ marks a conversion by molar mass, not a printed value.

Assays:
[1] = Unbound fraction in brain (fu brain); assay type: in vitro ADME
Protocol: (§1) Multiparameter optimization (MPO) and brain/plasma concentration at steady-state (logBB) are widely used to predict BBB permeability. […] A detailed ADME/PK (absorption, distribution, metabolism, excretion and pharmacokinetics) profiling was conducted, and the results are listed in Table . […] These values meet the standards that BBB permeability is considered high if Papp A–B is ≥ 3.0 × 10^–6 cm/s and the efflux ratio is <3.0.

P-glycoprotein (P-gp) = assay: P-gp inhibition PET study (tariquidar pretreatment) in NHP; assay type: in vivo, cynomolgus monkeys
Excerpt: (§2) Then, we sought to assess the in vivo PET imaging performance characteristics of [^11C]13a–e in NHPs, and the results are presented in Figure . […] One potential contributor is metabolic instability of those tracers may reduce the amount of intact tracers to cross the BBB. Another important consideration is efflux by ATP-binding cassette (ABC) transporters, such as P-glycoprotein (P-gp) that is highly expressed at the BBB and can actively pump substrates out of the CNS. To investigate whether 13a–e are P-gp efflux substrates, a P-gp inhibition study was conducted. […] To enhance brain uptake in future analogs, various medicinal chemistry strategies could be employed, such as hydrogen bond donor/acceptor optimization, fine-tuning lipophilicity, steric shielding of efflux motifs, and bioisosteric replacements. A potential limitation of this study is the lack of blood sampling during the PET scans, which precluded assessment of [^11C]13e plasma concentrations following tariquidar pretreatment. […]
(§3) PET experiments were conducted on anesthetized healthy cynomolgus monkeys, following approval from the Stockholm Animal Research Ethical Committee (Dnr. 4820/06–600). […] The monkeys’ heads were stabilized with a fixation device, and body temperature was regulated with a Bair Hugger model 505 (Arizant Healthcare, MN, USA) and continuously monitored using an esophageal thermometer. […]

Protein binding (% free) = assay type: in vitro ADME; conditions: read-out: mean Prot binding (% free)
GSK-3 [2] = assay: Radioligand saturation binding assay with tritiated ligands in hippocampal membranes; set-up: species or system Sprague–Dawley rat; conditions: tritiated ligand, hippocampus of SD rat brains
Protocol: The pharmacology and physicochemical properties of compounds 13a–13e are depicted in Table . To evaluate binding affinities, saturation binding assays using tritiated ligands [^3H]13a, [^3H]13c, [^3H]13d, [^3H]13e (Scheme S1) were performed using the hippocampal tissue of Sprague–Dawley (SD) rat brains. As depicted in Table A, total binding (TB), nonspecific binding (NSB), and specific binding (SB) of the respective tritiated ligands were measured with increasing concentrations of the radioligands. The dissociation constant (Kd) and capacity (B max) of each radioligand were calculated to confirm their binding affinity.
For membrane preparation, hippocampal tissue from adult rats (Sprague–Dawley) was dissected out, weighed, and frozen in 0.32 M sucrose at −70 °C. On the experiment day, the tissue was thawed, homogenized in 50 mM Tris, 5 mM EDTA (pH 7.4) and then centrifuged at 48 000 xg for 15 min at +4 °C. The pellet was diluted in binding buffer (50 mM Tris, 4 mM MgCl2, 1 mM EDTA pH 7.4) to a final concentration of 2.5 mg w.w./mL. Saturation binding experiments were performed in duplicate, with each tube containing 1 mg w.w. in 0.5 mL binding buffer and 0.1 – 17 nM (11–12 concentrations) of radioligand. Nonspecific binding was measured by adding 10 μM AR-A014418. The assays were incubated for 2–3 h at room temperature and terminated by quick filtration using Whatman GF/B filters pretreated with 0.3% polyethylenimine on a Brandel cell harvester. Radioactivity was measured with a Packard Tri-Carb 2900TR liquid scintillation counter, and data were processed by nonlinear regression analyses using PRISM 4.03.

[3] = Intrinsic clearance (CLint); assay type: in vitro ADME; conditions: cells (cell type not named); read-out: median CLint
Solubility = assay type: physicochemical; conditions: in dry DMSO at pH = 7.4
Protocol: as §1

[4] = Apparent permeability (Papp A-B) and efflux ratio; assay type: in vitro ADME
Protocol: as §1

[5] = Pharmacokinetics: half-life and bioavailability; conditions: in vivo
GSK-3β = assay: In vitro autoradiography on rat brain tissue sections; assay type: binding; conditions: rat brain sections, baseline
Protocol: In the next step, we performed in vitro autoradiography studies on rat brain tissue sections to investigate the binding selectivity and distribution of compounds [^3H]13a–13e (Figure ). […] These findings support the potential of this compound series for further development as GSK-3β-targeted neuroimaging probes.
In vitro autoradiography was conducted on 10 μm thick cry-cut tissue sections of rat tissue that had been thaw-mounted onto microscope slides. The brain sections were incubated in 50 mM Tris-HCl buffer at room temperature and then incubated with [^3H]-ligand for 30 min. The sections were rinsed three times for 10 min each in Tris buffer at 1 °C, followed by a quick rinse in deionized water at 1 °C, and then air-dried at room temperature with a fan. The radiolabeled sections and Amersham plastic tritium standards were then exposed to phosphoimager plates (Fuji BAS-TR2040) overnight. Blocking studies were conducted using a 1000-fold excess of the cold reference compounds, and validated GSK-3β inhibitors AR-A014418 and SB-216763. […] This micromolar concentration is consistent with established methods for GSK-3 radioligand autoradiography blocking experiments.

human recombinant GSK3β = human recombinant GSK3β (Homo sapiens, UniProt P49841); assay: GSK3β scintillation proximity assay (SPA), inhibition of kinase activity; assay type: biochemical
human recombinant GSK3β, sequence (P49841 whole entry): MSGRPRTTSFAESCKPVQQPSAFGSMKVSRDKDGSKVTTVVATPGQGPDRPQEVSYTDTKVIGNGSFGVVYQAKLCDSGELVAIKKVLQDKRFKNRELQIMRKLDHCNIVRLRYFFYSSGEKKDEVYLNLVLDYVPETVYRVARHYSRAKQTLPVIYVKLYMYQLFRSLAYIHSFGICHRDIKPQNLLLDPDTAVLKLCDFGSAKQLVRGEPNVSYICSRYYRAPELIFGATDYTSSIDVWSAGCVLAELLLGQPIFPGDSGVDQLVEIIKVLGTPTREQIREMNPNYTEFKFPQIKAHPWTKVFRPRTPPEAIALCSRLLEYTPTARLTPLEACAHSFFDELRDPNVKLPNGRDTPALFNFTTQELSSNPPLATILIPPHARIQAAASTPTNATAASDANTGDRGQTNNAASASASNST
Protocol: The inhibition of GSK3β activity is assessed using a scintillation proximity assay (SPA) in a 96-well microtiter plate format. The assay utilizes purified human recombinant GSK3β enzyme (∼1 nM active), [γ-^33P]-ATP (0.04 μCi), and a biotinylated peptide substrate (Biotin-[…](PO3H2)-PQL) at a final concentration of 2 μM. Reactions are carried out in an assay buffer containing MOPS, EDTA, β-mercaptoethanol, Brij 35, glycerol, and BSA, and preincubated for 10–15 min at room temperature. Inhibitor testing is conducted in duplicate using 10 different concentrations. The kinase reaction is initiated by adding ATP (1 μM final) in the presence of 50 mM Mg(Ac)2. After a 15 min incubation at room temperature, the reaction is terminated by adding a solution (25 μL) containing 5 mM EDTA, 50 μM ATP, 0.1% Triton X-100, and 10 mg/mL streptavidin-coated SPA beads, followed by the addition of distilled water (50 μL). After a 6-h incubation, bound radioactivity is measured using a MicroBeta Trilux liquid scintillation counter (1450 MicroBeta Trilux, Wallac). Data are analyzed using nonlinear regression with variable slope (GraphPad Prism or Excel Fit), and results are reported as Ki values calculated via the Cheng-Prusoff equation.

hERG channel = hERG channel (Homo sapiens, UniProt Q12809); assay: hERG channel inhibition
hERG channel, sequence (Q12809 whole entry): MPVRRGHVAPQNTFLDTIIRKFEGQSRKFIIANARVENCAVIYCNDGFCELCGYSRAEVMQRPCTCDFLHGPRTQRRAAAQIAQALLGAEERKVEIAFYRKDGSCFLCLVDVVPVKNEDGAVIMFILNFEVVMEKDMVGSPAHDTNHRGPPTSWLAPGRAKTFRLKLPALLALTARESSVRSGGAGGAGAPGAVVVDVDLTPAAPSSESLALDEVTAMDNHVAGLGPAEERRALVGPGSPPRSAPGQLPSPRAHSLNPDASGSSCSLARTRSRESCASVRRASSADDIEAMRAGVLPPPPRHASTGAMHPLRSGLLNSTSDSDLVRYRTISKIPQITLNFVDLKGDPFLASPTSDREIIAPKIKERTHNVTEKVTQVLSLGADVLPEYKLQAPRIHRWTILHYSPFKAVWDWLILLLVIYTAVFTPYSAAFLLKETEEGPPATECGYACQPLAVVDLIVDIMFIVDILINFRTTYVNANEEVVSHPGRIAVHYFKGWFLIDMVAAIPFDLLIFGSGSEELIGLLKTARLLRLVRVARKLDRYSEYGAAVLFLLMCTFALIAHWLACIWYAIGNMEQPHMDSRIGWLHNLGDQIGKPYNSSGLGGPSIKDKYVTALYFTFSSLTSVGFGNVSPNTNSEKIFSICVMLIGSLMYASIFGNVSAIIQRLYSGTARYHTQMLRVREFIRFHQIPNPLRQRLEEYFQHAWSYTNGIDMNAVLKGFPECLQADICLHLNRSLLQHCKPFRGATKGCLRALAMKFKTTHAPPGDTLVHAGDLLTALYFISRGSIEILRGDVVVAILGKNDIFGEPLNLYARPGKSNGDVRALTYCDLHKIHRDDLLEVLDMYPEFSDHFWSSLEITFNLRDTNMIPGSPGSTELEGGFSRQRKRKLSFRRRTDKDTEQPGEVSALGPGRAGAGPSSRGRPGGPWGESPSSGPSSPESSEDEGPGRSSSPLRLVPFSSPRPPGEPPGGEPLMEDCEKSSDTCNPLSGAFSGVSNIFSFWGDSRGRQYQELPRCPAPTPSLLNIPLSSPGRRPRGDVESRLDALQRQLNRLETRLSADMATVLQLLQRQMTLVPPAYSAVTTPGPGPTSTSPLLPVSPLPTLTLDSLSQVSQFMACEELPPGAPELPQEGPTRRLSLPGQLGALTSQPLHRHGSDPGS

GSK-3 [6] = assay: NHP PET imaging of brain uptake; assay type: in vivo, cynomolgus monkeys; conditions: i.v. bolus, baseline
Excerpt: as §2, §3

CC(=O)N1CCN(Cc2ccc(Nc3ncc(F)c(-c4cnc(C)n4C4CCOCC4)n3)cc2)CC1 [13e]
fraction unbound [1]: 0.12 | P-gp substrate status (P-glycoprotein (P-gp); NHP PET): P-glycoprotein substrate | brain uptake after P-gp inhibition (P-glycoprotein (P-gp); NHP, Tariquidar 6 mg/kg): significantly increased the brain uptake | fraction unbound (Protein binding (% free)): 0.111 | Kd (GSK-3 [2]): 2.94 nM | hepatocyte CLint [3]: 12 µL/min/1e6 cells | solubility (Solubility): 362 µM (≈ 179 µg/mL) | P app A-B [4]: 12.7 × 10^–6 cm/s | efflux ratio ([4]; not told, Papp B–A/Papp A–B): 1.4 | bioavailability [5]: 10.1% | half-life ([5]; read-out: mean t 1/2 (converted)): 1.73 h | regional binding in autoradiography (GSK-3β; by brain region): high binding in the cortex and hippocampus, moderate uptake in the striatum and cerebellum, and relatively low binding in the thalamus | radioactive accumulation / distribution in autoradiography (GSK-3β; tritiated ligand): highest and most regionally distinct uptake | Ki (human recombinant GSK3β; GSK-3β, calculated via the Cheng-Prusoff equation): 3.33 nM | IC50 (human recombinant GSK3β; SPA, 1 μM ATP): 4.44 nM | IC50 (hERG channel): 20500 nM | brain uptake (PET) (GSK-3 [6]): relatively higher signals in the brain
